The source made the active and inactive calls. The rule behind the calls is not given here.
Tests used:
[1] = test system: MV4-11; assay: Anti-proliferative activity against human MV4-11 cells measured after 72 hrs by CCK8 assay; details: MV4-11, 72 h
[2] = test system: MOLM-13; assay: Anti-proliferative activity against human MOLM-13 cells measured after 72 hrs by CCK8 assay; details: MOLM-13, 72 h
[3] = test system: MDA-MB-231; assay: Anti-proliferative activity against human MDA-MB-231 cells measured after 96 hrs by CCK8 assay; details: MDA-MB-231, 96 h
[4] = test system: MM1.S; assay: Anti-proliferative activity against human MM1.S cells measured after 120 hrs by CCK8 assay
[5] = target: MAP kinase-interacting serine/threonine-protein kinase 1 (Homo sapiens, UniProt Q9BUB5); assay: Inhibition of recombinant MNK1 (unknown origin) using TATKSGSTTKNR peptide as substrate preincubated for 5 mins followed by ATP addition and measured after 40 mins by ADP-Glo kinase assay
[6] = test system: MV4-11; assay: Induction of MNK2 degradation in human MV4-11 cells at 300 to 1000 nM incubated for 24 hrs by immunoblot analysis; format: cell-based; details: dose 300-1000 nM
[7] = test system: MV4-11; assay: Induction of apoptosis in human MV4-11 cells assessed as viable cells at 300 nM incubated for 24 hrs by Annexin V-FITC/PI dual staining based flow cytometric analysis (reference value: 94.9 %); format: functional; details: read-out: Activity
[8] = test system: MV4-11; assay: Induction of apoptosis in human MV4-11 cells assessed as early apoptotic cells at 300 nM incubated for 24 hrs by Annexin V-FITC/PI dual staining based flow cytometric analysis (reference value: 3.42 %); format: functional
[9] = test system: MV4-11; assay: Induction of apoptosis in human MV4-11 cells assessed as late apoptotic cells at 300 nM incubated for 24 hrs by Annexin V-FITC/PI dual staining based flow cytometric analysis (reference value: 1.48 %); format: functional
[10] = test system: MV4-11; assay: Induction of apoptosis in human MV4-11 cells assessed as necrotic cells at 300 nM incubated for 24 hrs by Annexin V-FITC/PI dual staining based flow cytometric analysis (reference value: 0.16 %); format: functional
[11] = test system: MV4-11; assay: Antitumor activity against human MV4-11 cells xenografted in nude female NSG mouse assessed as tumor growth inhibition at 20 mg/kg, ip qd administrated for 16 days by caliper method relative to control; format: functional; details: MV4-11, 384 h, time 16 day, read-out: TGI
[12] = Toxicity in nude female NSG mouse xenografted with human MV4-11 cells assessed as change in body weight at 20 mg/kg, ip qd administrated for 16 days; format: organism-based; details: in vivo, 384 h, time 16 day

MAP kinase-interacting serine/threonine-protein kinase 1, sequence (Q9BUB5 whole entry): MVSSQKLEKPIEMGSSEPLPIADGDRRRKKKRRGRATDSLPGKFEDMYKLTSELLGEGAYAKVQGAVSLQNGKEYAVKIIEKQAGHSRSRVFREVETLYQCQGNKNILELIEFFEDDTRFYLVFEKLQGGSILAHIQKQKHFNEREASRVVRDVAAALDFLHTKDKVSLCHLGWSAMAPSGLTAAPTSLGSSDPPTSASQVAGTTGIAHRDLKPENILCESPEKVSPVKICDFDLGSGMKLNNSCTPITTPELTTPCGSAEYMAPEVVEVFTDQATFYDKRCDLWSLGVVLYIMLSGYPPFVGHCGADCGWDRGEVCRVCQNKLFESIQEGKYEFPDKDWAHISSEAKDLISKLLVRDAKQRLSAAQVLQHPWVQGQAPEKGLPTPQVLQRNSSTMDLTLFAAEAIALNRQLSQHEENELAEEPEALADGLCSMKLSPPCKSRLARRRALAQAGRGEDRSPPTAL

Structure (SMILES) | IC50 [1] [µM] | also measured
O=C(CC(=O)N1CCC(C(=O)Nc2ncc(-c3ccccc3)s2)CC1)NCCCCCCC(=O)Nc1cccc2c1CN(C1CCC(=O)NC1=O)C2=O (stereo not drawn) | 0.86 | IC50 [2]: 6.96 µM; IC50 [3]: 17.6 µM; IC50 [4]: 1.91 µM
O=C1CCC(N2Cc3c(NC(=O)CCCCCCC(=O)N4CCC(C(=O)Nc5ncc(-c6ccccc6)s5)CC4)cccc3C2=O)C(=O)N1 (stereo not drawn) | 0.21 | IC50 [2]: 1.95 µM; IC50 [3]: 5.74 µM; IC50 [4]: 0.41 µM
O=C1CCC(N2C(=O)c3cc(F)c(N4CCN(C(=O)CCCN5CCC(C(=O)Nc6ncc(-c7ccccc7)s6)CC5)CC4)cc3C2=O)C(=O)N1 (stereo not drawn) | 8.47 | –
O=C(CC(=O)N1CCC(C(=O)Nc2ncc(-c3ccccc3)s2)CC1)NCCCCCC(=O)Nc1cccc2c1CN(C1CCC(=O)NC1=O)C2=O (stereo not drawn) | 7.1 | –
O=C1CCC(N2C(=O)c3cc(F)c(N4CCN(C(=O)CC(=O)N5CCC(C(=O)Nc6ncc(-c7ccccc7)s6)CC5)CC4)cc3C2=O)C(=O)N1 (stereo not drawn) | > 10 | –
O=C(CC(=O)N1CCC(C(=O)Nc2ncc(-c3ccccc3)s2)CC1)NCCCCCCCC(=O)Nc1cccc2c1CN(C1CCC(=O)NC1=O)C2=O (stereo not drawn) | 5.41 | –
O=C1CCC(N2Cc3c(NC(=O)CCCCCCN4CCC(C(=O)Nc5ncc(-c6ccccc6)s5)CC4)cccc3C2=O)C(=O)N1 (stereo not drawn) | 4.89 | –
O=C1CCC(N2C(=O)c3cc(F)c(N4CCN(C(=O)CCCCCN5CCC(C(=O)Nc6ncc(-c7ccccc7)s6)CC5)CC4)cc3C2=O)C(=O)N1 (stereo not drawn) | > 10 | –
O=C1CCC(N2Cc3c(NC(=O)CCCCN4CCC(C(=O)Nc5ncc(-c6ccccc6)s5)CC4)cccc3C2=O)C(=O)N1 (stereo not drawn) | 3.36 | –
O=C1CCC(N2Cc3c(NC(=O)CCc4ccc(OCCCC(=O)N5CCC(C(=O)Nc6ncc(-c7ccccc7)s6)CC5)cc4)cccc3C2=O)C(=O)N1 (stereo not drawn) | > 10 | –
CN1C(=O)CCC(N2Cc3c(NC(=O)CCCCCC(=O)N4CCC(C(=O)Nc5ncc(-c6ccccc6)s5)CC4)cccc3C2=O)C1=O (stereo not drawn) | > 10 | –
O=C1CCC(N2Cc3c(NC(=O)CCCCOc4ccc(CCC(=O)N5CCC(C(=O)Nc6ncc(-c7ccccc7)s6)CC5)cc4)cccc3C2=O)C(=O)N1 (stereo not drawn) | 9.89 | –
O=C1CCC(N2Cc3c(NC(=O)CCCCCCCN4CCC(C(=O)Nc5ncc(-c6ccccc6)s5)CC4)cccc3C2=O)C(=O)N1 (stereo not drawn) | > 10 | –
O=C1CCC(N2Cc3c(NC(=O)CCCOc4ccc(CC(=O)N5CCC(C(=O)Nc6ncc(-c7ccccc7)s6)CC5)cc4)cccc3C2=O)C(=O)N1 (stereo not drawn) | 6.38 | –
O=C(CC(=O)N1CCC(C(=O)Nc2ncc(-c3ccccc3)s2)CC1)NCCCCC(=O)Nc1cccc2c1CN(C1CCC(=O)NC1=O)C2=O (stereo not drawn) | 6.17 | –
O=C1CCC(N2Cc3c(NC(=O)CCCOc4ccc(CCC(=O)N5CCC(C(=O)Nc6ncc(-c7ccccc7)s6)CC5)cc4)cccc3C2=O)C(=O)N1 (stereo not drawn) | 8.58 | –
CN1CCC(C(=O)Nc2ncc(-c3ccccc3)s2)CC1 | 3.32 | IC50 [5]: 0.387 µM; IC50 [2]: 12.1 µM; IC50 [3]: > 20 µM; IC50 [4]: 5.32 µM; Activity [6]: inactive; viability at 0.3 µM [7]: 86.2%; Activity [8]: 9.59%; Activity [9]: 3.75%; Activity [10]: 0.49%; inhibition in vivo at 20 mg/kg [11]: 28%; Activity [12]: Non-toxic
O=C1CCC(N2C(=O)c3cc(F)c(N4CCN(C(=O)CCCCCC(=O)N5CCC(C(=O)Nc6ncc(-c7ccccc7)s6)CC5)CC4)cc3C2=O)C(=O)N1 (stereo not drawn) | 4.08 | –
O=C1CCC(N2Cc3c(NC(=O)CCCCCN4CCC(C(=O)Nc5ncc(-c6ccccc6)s5)CC4)cccc3C2=O)C(=O)N1 (stereo not drawn) | 0.9 | IC50 [2]: 11.5 µM; IC50 [3]: 12.2 µM; IC50 [4]: 1.22 µM

More lines, main results first:

IC50 [1] [µM] | Structure (SMILES) | also measured
2.28 | O=C1CCC(N2C(=O)c3cc(F)c(N4CCN(C(=O)CCCCCCC(=O)N5CCC(C(=O)Nc6ncc(-c7ccccc7)s6)CC5)CC4)cc3C2=O)C(=O)N1 (stereo not drawn) | IC50 [2]: 10 µM; IC50 [3]: > 20 µM; IC50 [4]: 3.84 µM
8.98 | O=C1CCC(N2C(=O)c3cc(F)c(N4CCN(C(=O)CCCC(=O)N5CCC(C(=O)Nc6ncc(-c7ccccc7)s6)CC5)CC4)cc3C2=O)C(=O)N1 (stereo not drawn) | IC50 [5]: 0.64 µM
> 10 | O=C1CCC(N2Cc3c(NC(=O)CCc4ccc(OCCCCC(=O)N5CCC(C(=O)Nc6ncc(-c7ccccc7)s6)CC5)cc4)cccc3C2=O)C(=O)N1 (stereo not drawn) | –
> 10 | O=C(CC(=O)N1CCC(C(=O)Nc2ncc(-c3ccccc3)s2)CC1)NCCOCC(=O)Nc1cccc2c1CN(C1CCC(=O)NC1=O)C2=O (stereo not drawn) | –
5.21 | O=C1CCC(N2Cc3c(NC(=O)CCCCCCCCC(=O)N4CCC(C(=O)Nc5ncc(-c6ccccc6)s5)CC4)cccc3C2=O)C(=O)N1 (stereo not drawn) | –
2.17 | O=C1CCC(N2Cc3c(NC(=O)CCCCC(=O)N4CCC(C(=O)Nc5ncc(-c6ccccc6)s5)CC4)cccc3C2=O)C(=O)N1 (stereo not drawn) | –
4.59 | O=C1CCC(N2Cc3c(NC(=O)CCCCCCCC(=O)N4CCC(C(=O)Nc5ncc(-c6ccccc6)s5)CC4)cccc3C2=O)C(=O)N1 (stereo not drawn) | –
5.13 | O=C1CCC(N2C(=O)c3cc(F)c(N4CCN(C(=O)CCC(=O)N5CCC(C(=O)Nc6ncc(-c7ccccc7)s6)CC5)CC4)cc3C2=O)C(=O)N1 (stereo not drawn) | –
> 10 | O=C1CCC(N2C(=O)c3cc(F)c(N4CCN(C(=O)CCCCC(=O)N5CCC(C(=O)Nc6ncc(-c7ccccc7)s6)CC5)CC4)cc3C2=O)C(=O)N1 (stereo not drawn) | –
7.9 | O=C1CCC(N2C(=O)c3cc(F)c(N4CCN(C(=O)CCCCN5CCC(C(=O)Nc6ncc(-c7ccccc7)s6)CC5)CC4)cc3C2=O)C(=O)N1 (stereo not drawn) | –
> 10 | O=C(CCC(=O)N1CCC(C(=O)Nc2ncc(-c3ccccc3)s2)CC1)NCCCCCC(=O)Nc1cccc2c1CN(C1CCC(=O)NC1=O)C2=O (stereo not drawn) | –
1.44 | O=C1CCC(N2Cc3c(NC(=O)CCCCOc4ccc(CC(=O)N5CCC(C(=O)Nc6ncc(-c7ccccc7)s6)CC5)cc4)cccc3C2=O)C(=O)N1 (stereo not drawn) | IC50 [2]: 9.52 µM; IC50 [3]: > 20 µM; IC50 [4]: 2.43 µM
